Experimental data from ChEMBL document CHEMBL4376882, “Photodynamic Therapy for ras-Driven Cancers: Targeting G-Quadruplex RNA Structures with Bifunctional Alkyl-Modified Porphyrins” (J Med Chem, 2020).
Calls of active or inactive are those of the source. The rule behind the calls is not given here.

Tests used:
Quadruplex DNA [1] = test: Binding affinity to NRAS RNA g-quadruplex (unknown origin) by fluorescence spectroscopy; assay type: nucleic-acid assay
Quadruplex DNA [2] = test: Binding affinity to human KRAS utr-1 RNA g-quadruplex by fluorescence spectroscopy; assay type: nucleic-acid assay
Quadruplex DNA [3] = test: Binding affinity to human KRAS utr-z RNA g-quadruplex at 40 degree C by SPR analysis; assay type: nucleic-acid assay
[4] = Drug localization in cytoplasm of human PANC1 cells at 5 uM after 6 hrs by Hoechst staining based confocal microscopy; assay type: ADME, subcellular; settings: panc-1, 6 h
[5] = Drug uptake in human PANC1 cells at 5 uM and 4 degree C after 16 hrs by FACS analysis relative to 37 degree C; assay type: ADME, cell-based; settings: panc-1, 16 h
PANC-1 [6] = test: Antitumor activity against human PANC1 cells xenografted in SCID mouse assessed as reduction in tumor growth at 3 mg/kg administered intratumorally measured after 14 days by micrometer caliper method; assay type: functional, organism-based
PANC-1 [7] = test: Induction of apoptosis in human PANC1 cells assessed as early apoptotic cells at 10 nM and photoirradiated at 7.2 J/cm2 measured after 6 to 24 hrs in presence of NAC by annexin-V-propidium iodide staining based FACScalibur flow cytometry analysis (reference value: 3.1 %); assay type: functional
[8] = Induction of ROS-mediated […] labeled Ras RNA g-quadruplex (unknown origin) degradation at 0.6 uM incubated for 30 mins followed by photoirradiation for 15 to 30 mins by PAGE analysis

CCCCCCCCCCCCCC[n+]1ccc(-c2c3nc(c(-c4cc[n+](C)cc4)c4ccc([nH]4)c(-c4cc[n+](C)cc4)c4nc(c(-c5cc[n+](C)cc5)c5ccc2[nH]5)C=C4)C=C3)cc1.[I-].[I-].[I-].[I-]
Kd (Quadruplex DNA [1]): 107 nM | Kd (Quadruplex DNA [2]): 236 nM | Kd (Quadruplex DNA [3]): 82 to 202 nM | Drug uptake [4]: Active | Drug uptake [5]: 24% | Activity (PANC-1 [6]): inactive | Activity (PANC-1 [7]): 3.7% | Activity [8]: Active
